In data set [1] the test system is HCT116 human colon cancer xenograft. In words: Anti-tumor activity in HCT116 xenograft in Foxn1 athymic nude mice (study CLBBI1). In kind it is in vivo. The note with it: for Percent Tumor Growth Inhibition (% TGI): 5 days/week. From the text: Evaluation of the Anti-Tumor Activity of CLX-155 [(2R,3R,4R,5R)-2-(5-fluoro-4-octanamido-2-oxopyrimidin-1(2H)-yl)-5-methyltetrahydrofuran-3,4-diyl diacetate] in Relation to Capecitabine in HCT116 Xenograft in Foxn1 Athymic Nude Mice Model Study Code: CLBBI1
The purpose of this study was to evaluate the anti-tumor activity of CLX-155 administered by oral gavage, once daily for 5 days/week (two days off) for three weeks in HCT116 human colon cancer xenograft bearing Foxn1 athymic nude mice. The anti-tumor activity of CLX-155 was compared with capecitabine.
(§1) Foxn1 athymic nude female mice (7-8 weeks) were implanted with human colon cancer cell line, HCT116 (5 million cells/site) subcutaneously in the dorsal right flank. The animals were randomized (N=10) into different treatment groups as vehicle control, CLX-155 (125, 250 and 500 mg/kg/day) or capecitabine (1000 mg/kg/day) based on the tumor volume, when the subcutaneous tumor reached a volume in the range of 70-170 mm3. The doses were selected based on the results of a 7-day repeated dose range finding toxicity study in Foxn1 nude mice.
(§2) The animals in the control group were dosed with the formulation used for CLX-155, which consisted of Capryol 90 (32.5% w/v), Polysorbate 80 (2.5% w/v) in Water (q.$) at the dose volume of 8 mL/kg. The Capecitabine formulation was prepared using 0.5% Hydroxypropyl methylcellulose (HPMC E 15) in 40 mM citrate buffer, pH 6.0. Treatment to animals was performed for three consecutive weeks (5 days/week dosing followed by 2 days off). The dose volume was 8 and 10 ml/kg body weight for CLX-155 and capecitabine, respectively. […] Tumor growth inhibition (TGI) was calculated based on the tumor volume on a given day as compared to that on day 1.

The nature of data set [2]: Mortality, clinical signs and body weight in the HCT116 xenograft study. In kind it is in vivo. The note with it: for mortality: N=10, deaths on day 14 and 22. As for the experimental part:
as §1, §2

Values joined by “and” are separate entries in the source; they are usually repeats but may differ in a detail not shown here. Equal values may be shown once. “Also recorded” adds a separate entry of the source.

On to `CCCCCCCC(=O)Nc1nc(=O)n([C@@H]2O[C@H](C)[C@@H](OC(C)=O)[C@H]2OC(C)=O)cc1F` [CLX-155, (2R,3R,4R,5R)-2-(5-fluoro-4-octanamido-2-oxopyrimidin-1(2H)-yl)-5-methyltetrahydrofuran-3,4-diyl diacetate], for which the “Percent Tumor Growth Inhibition (% TGI)” value in data set [1] (125 mg/kg/day oral gavage, day 3) was determined as 49.4%; in data set [1] (125 mg/kg/day oral gavage, day 5), 59.5%; in data set [1] (125 mg/kg/day oral gavage, day 8), 59.8%; in data set [1] (125 mg/kg/day oral gavage, day 10), 56.3%; in data set [1] (125 mg/kg/day oral gavage, day 12), 58.5%; in data set [1] (125 mg/kg/day oral gavage, day 15), 57.8%. Besides, the “Percent Tumor Growth Inhibition (% TGI)” value in data set [1] (250 mg/kg/day oral gavage, day 3) was found to be 83.6%; in data set [1] (250 mg/kg/day oral gavage, day 5), 61.4%; in data set [1] (250 mg/kg/day oral gavage, day 8), 67.7%; in data set [1] (250 mg/kg/day oral gavage, day 10) it was 66.5%; in data set [1] (250 mg/kg/day oral gavage, day 12), 66.7%; in data set [1] (250 mg/kg/day oral gavage, day 15), 70.4%. Moreover, the “Percent Tumor Growth Inhibition (% TGI)” value in data set [1] (500 mg/kg/day oral gavage, day 3) worked out at 51.1%; in data set [1] (500 mg/kg/day oral gavage, day 5) it was 67.1%; in data set [1] (500 mg/kg/day oral gavage, day 8), 75.3%; in data set [1] (500 mg/kg/day oral gavage, day 10) it was 75.4%; in data set [1] (500 mg/kg/day oral gavage, day 12), 79.5%; in data set [1] (500 mg/kg/day oral gavage, day 15), 90.6%. Further, the “complete tumor regressions / complete responders (CR)” value in data set [1] (500 mg/kg/day, N=10) was “Two and 2/10”. Besides, the “TGI compared with the other drug (in words)” value in data set [1] (CLX-155 at 500 mg/kg/day) is given as “comparable to capecitabine at 1000 mg/kg/day”. In addition, the “tumor growth inhibition as compared to the vehicle control (in words)” value in data set [1] (all dose levels tested) is on record as “statistically significant, dose dependent tumor growth inhibition at all doses; also recorded: statistically significant, dose dependent tumor growth inhibition at all the dose levels tested; also recorded: dose-dependent inhibition of tumor growth”.
As to `CCCCCOC(=O)Nc1nc(=O)n([C@@H]2O[C@H](C)[C@@H](O)[C@H]2O)cc1F` [Capecitabine, reference compound], the “Mean % body weight reduction” value in data set [2] (1000 mg/kg/day) is −5.9%. The “clinical signs of toxicity” value in data set [2] (1000 mg/kg/day) is “hunched back and scaly skin”. For the same compound, the mortality entry was “Two” in data set [2] (1000 mg/kg/day) and 2/10 in data set [2] (1000 mg/kg/day, listed as capecitabine). Further, the “relative toxicity based on mortality and clinical signs of toxicity” value in data set [2] (capecitabine 1000 mg/kg/day vs CLX-155 125-500 mg/kg/day) is “relatively more toxic than CLX-155”. Further, in data set [1] (1000 mg/kg/day), the “CR or PR observed” value is listed as “no CR or PR observed”. The “Percent Tumor Growth Inhibition (% TGI)” value was 27.3% in data set [1] (1000 mg/kg/day, day 3); 46.2% in data set [1] (1000 mg/kg/day, day 5); 68.0% in data set [1] (1000 mg/kg/day, day 8); 75.4% in data set [1] (1000 mg/kg/day, day 10); 80.9% in data set [1] (1000 mg/kg/day, day 12); 87.7% in data set [1] (1000 mg/kg/day, day 15). The “TGI compared with the other drug (in words)” value in data set [1] (Capecitabine at 1000 mg/kg/day) was “comparable to that observed at 500 mg/kg/day of CLX-155”.

Source of the values: US20210078983A1, “COMPOSITIONS AND METHODS FOR THE TREATMENT OF CANCER” (Cellix Bio Private Limited, priority 2017, published 2021).
